In patent US11173151B2, “Substituted triazole derivatives and uses thereof” (BAYER AKTIENGESELLSCHAFT, priority 2017, dated 2021):

Legend:
[1] = molecular target: T1, human V2 receptor (Homo sapiens, UniProt P30518); assay: Cellular in vitro assay for determining vasopressin receptor activity, V2 receptor cell line (CHO, CRE-luciferase); assay type: cell-based; details: CHO cell line transfected with human V2 receptor; [Arg8]-vasopressin at EC50 concentration, 3 hours; read-out: IC50 hV2
T1 construct: expressed in transfected cells; host or cells: CHO K1 (ATCC) expressing firefly luciferase under a CRE-responsive promoter
T1 sequence (P30518 whole entry): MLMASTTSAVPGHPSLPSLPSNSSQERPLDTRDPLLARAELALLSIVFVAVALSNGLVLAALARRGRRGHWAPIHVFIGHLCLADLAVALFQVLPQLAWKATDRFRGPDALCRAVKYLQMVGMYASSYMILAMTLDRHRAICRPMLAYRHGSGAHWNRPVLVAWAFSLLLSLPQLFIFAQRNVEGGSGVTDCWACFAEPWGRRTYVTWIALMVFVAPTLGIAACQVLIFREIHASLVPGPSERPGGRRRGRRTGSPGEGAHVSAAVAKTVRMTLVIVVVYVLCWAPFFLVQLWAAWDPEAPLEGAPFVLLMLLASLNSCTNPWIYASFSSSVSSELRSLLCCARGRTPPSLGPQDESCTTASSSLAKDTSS

[2] = molecular target: T2, human V1a receptor (Homo sapiens, UniProt P37288); assay: Cellular in vitro assay for determining vasopressin receptor activity, V1a receptor cell line (CHO, aequorin luminescence); assay type: cell-based; details: for IC50: CHO cell line transfected with human V1a receptor, [Arg]-vasopressin at EC50 concentration, read-out: IC50 hV1a; for ratio IC50 hV2/hV1a: selectivity ratio IC50 hV2 / IC50 hV1a
T2 construct: expressed in transfected cells; host or cells: CHO K1 (ATCC), also stably transfected with a modified aequorin
T2 sequence (P37288 whole entry): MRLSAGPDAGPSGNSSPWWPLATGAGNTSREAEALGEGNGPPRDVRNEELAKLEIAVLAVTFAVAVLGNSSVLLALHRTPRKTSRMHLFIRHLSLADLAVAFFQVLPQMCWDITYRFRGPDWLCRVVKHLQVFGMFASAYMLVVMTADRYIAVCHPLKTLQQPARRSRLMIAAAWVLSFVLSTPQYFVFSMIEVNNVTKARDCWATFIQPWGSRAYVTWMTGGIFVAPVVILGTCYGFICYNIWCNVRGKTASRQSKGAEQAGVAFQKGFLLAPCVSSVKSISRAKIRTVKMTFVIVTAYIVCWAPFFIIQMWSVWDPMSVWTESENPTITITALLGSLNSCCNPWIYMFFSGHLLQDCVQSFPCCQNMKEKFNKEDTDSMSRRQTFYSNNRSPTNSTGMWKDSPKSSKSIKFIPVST
Procedure, shortened: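 IC50 from inhibition of [Arg]-vasopressin (EC50 concentration)-evoked aequorin luminescence in CHO K1 cells, with 10-min compound pretreatment.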

CC(C)(C)CNC(=O)c1ccccc1-n1cnc(Cn2nc(-c3ccc(Cl)cc3)n(C[C@H](O)C(F)(F)F)c2=O)n1 [Example 322, 2-[3-({3-(4-Chlorophenyl)-5-oxo-4-[(2S)-3,3,3-trifluoro-2-hydroxypropyl]-4,5-dihydro-1H-1,2,4-triazol-1-yl}methyl)-1H-1,2,4-triazol-1-yl]-N-(2,2-dimethylpropyl)benzamide]
IC50 [1]: 275 nM
IC50 [2]: 2.65 nM
ratio IC50 hV2/hV1a [2]: 103.8

Cc1ccccc1NC(=O)c1ccccc1-n1cnc(Cn2nc(-c3ccc(Cl)cc3)n(C[C@H](O)C(F)(F)F)c2=O)n1 [Example 323, 2-[3-({3-(4-Chlorophenyl)-5-oxo-4-[(2S)-3,3,3-trifluoro-2-hydroxypropyl]-4,5-dihydro-1H-1,2,4-triazol-1-yl}methyl)-1H-1,2,4-triazol-1-yl]-N-(2-methylphenyl)benzamide]
IC50 [1]: 70.5 nM
IC50 [2]: 2.05 nM
ratio IC50 hV2/hV1a [2]: 34.4

CC(C)N(C(=O)c1ccccc1-n1cnc(Cn2nc(-c3ccc(Cl)cc3)n(C[C@H](O)C(F)(F)F)c2=O)n1)C(C)C [Example 324, 2-[3-({3-(4-Chlorophenyl)-5-oxo-4-[(2S)-3,3,3-trifluoro-2-hydroxypropyl]-4,5-dihydro-1H-1,2,4-triazol-1-yl}methyl)-1H-1,2,4-triazol-1-yl]-N,N-di(propan-2-yl)benzamide]
IC50 [1]: 1650 nM
IC50 [2]: 14 nM
ratio IC50 hV2/hV1a [2]: 117.9

O=C(NCC1CC1)c1ccccc1-n1cnc(Cn2nc(-c3ccc(Cl)cc3)n(C[C@H](O)C(F)(F)F)c2=O)n1 [Example 325, 2-[3-({3-(4-Chlorophenyl)-5-oxo-4-[(2S)-3,3,3-trifluoro-2-hydroxypropyl]-4,5-dihydro-1H-1,2,4-triazol-1-yl}methyl)-1H-1,2,4-triazol-1-yl]-N-(cyclopropylmethyl)benzamide]
IC50 [1]: 120 nM
IC50 [2]: 1.01 nM
ratio IC50 hV2/hV1a [2]: 118.8

CC1(C)CCCN(C(=O)c2ccccc2-n2cnc(Cn3nc(-c4ccc(Cl)cc4)n(C[C@H](O)C(F)(F)F)c3=O)n2)C1 [Example 327, 5-(4-Chlorophenyl)-2-[(1-{2-[(3,3-dimethylpiperidin-1-yl)carbonyl]phenyl}-1H-1,2,4-triazol-3-yl)methyl]-4-[(2S)-3,3,3-trifluoro-2-hydroxypropyl]-2,4-dihydro-3H-1,2,4-triazol-3-one]
IC50 [1]: 495 nM
IC50 [2]: 4.4 nM
ratio IC50 hV2/hV1a [2]: 112.5

CN(C(=O)c1ccccc1-n1cnc(Cn2nc(-c3ccc(Cl)cc3)n(C[C@H](O)C(F)(F)F)c2=O)n1)C1CCCCC1 [Example 329, 2-[3-({3-(4-Chlorophenyl)-5-oxo-4-[(2S)-3,3,3-trifluoro-2-hydroxypropyl]-4,5-dihydro-1H-1,2,4-triazol-1-yl}methyl)-1H-1,2,4-triazol-1-yl]-N-cyclohexyl-N-methylbenzamide]
IC50 [1]: 1900 nM
IC50 [2]: 11.1 nM
ratio IC50 hV2/hV1a [2]: 171.9

CN(Cc1ccco1)C(=O)c1ccccc1-n1cnc(Cn2nc(-c3ccc(Cl)cc3)n(C[C@H](O)C(F)(F)F)c2=O)n1 [Example 330, 2-[3-({3-(4-Chlorophenyl)-5-oxo-4-[(2S)-3,3,3-trifluoro-2-hydroxypropyl]-4,5-dihydro-1H-1,2,4-triazol-1-yl}methyl)-1H-1,2,4-triazol-1-yl]-N-(furan-2-ylmethyl)-N-methylbenzamide]
IC50 [1]: 1350 nM
IC50 [2]: 9.95 nM
ratio IC50 hV2/hV1a [2]: 135.7

CN1CCCN(C(=O)c2ccccc2-n2cnc(Cn3nc(-c4ccc(Cl)cc4)n(C[C@H](O)C(F)(F)F)c3=O)n2)CC1 [Example 331, 5-(4-Chlorophenyl)-2-[(1-{2-[(4-methyl-1,4-diazepan-1-yl)carbonyl]phenyl}-1H-1,2,4-triazol-3-yl)methyl]-4-[(2S)-3,3,3-trifluoro-2-hydroxypropyl]-2,4-dihydro-3H-1,2,4-triazol-3-one]
IC50 [1]: 7700 nM
IC50 [2]: 33 nM
ratio IC50 hV2/hV1a [2]: 233.3

CN(C)[C@H]1CCN(C(=O)c2ccccc2-n2cnc(Cn3nc(-c4ccc(Cl)cc4)n(C[C@H](O)C(F)(F)F)c3=O)n2)C1 [Example 332, 5-(4-Chlorophenyl)-2-{[1-(2-{[(3S)-3-(dimethylamino)pyrrolidin-1-yl]carbonyl}phenyl)-1H-1,2,4-triazol-3-yl]methyl}-4-[(2S)-3,3,3-trifluoro-2-hydroxypropyl]-2,4-dihydro-3H-1,2,4-triazol-3-one]
IC50 [1]: 10500 nM
IC50 [2]: 20.5 nM
ratio IC50 hV2/hV1a [2]: 509.8

CN(C)[C@@H]1CCN(C(=O)c2ccccc2-n2cnc(Cn3nc(-c4ccc(Cl)cc4)n(C[C@H](O)C(F)(F)F)c3=O)n2)C1 [Example 333, 5-(4-Chlorophenyl)-2-{[1-(2-{[(3R)-3-(dimethylamino)pyrrolidin-1-yl]carbonyl}phenyl)-1H-1,2,4-triazol-3-yl]methyl}-4-[(2S)-3,3,3-trifluoro-2-hydroxypropyl]-2,4-dihydro-3H-1,2,4-triazol-3-one]
IC50 [1]: 8950 nM
IC50 [2]: 5.55 nM
ratio IC50 hV2/hV1a [2]: 1612.6

O=C(c1ccccc1-n1cnc(Cn2nc(-c3ccc(Cl)cc3)n(C[C@H](O)C(F)(F)F)c2=O)n1)N1CCSC1 [Example 334, 5-(4-Chlorophenyl)-2-({1-[2-(1,3-thiazolidin-3-ylcarbonyl)phenyl]-1H-1,2,4-triazol-3-yl}methyl)-4-[(2S)-3,3,3-trifluoro-2-hydroxypropyl]-2,4-dihydro-3H-1,2,4-triazol-3-one]
IC50 [1]: 855 nM
IC50 [2]: 2.95 nM
ratio IC50 hV2/hV1a [2]: 289.8

COC[C@H]1CCCN1C(=O)c1ccccc1-n1cnc(Cn2nc(-c3ccc(Cl)cc3)n(C[C@H](O)C(F)(F)F)c2=O)n1 [Example 335, 5-(4-Chlorophenyl)-2-{[1-(2-{[(2R)-2-(methoxymethyl)pyrrolidin-1-yl]carbonyl}phenyl)-1H-1,2,4-triazol-3-yl]methyl}-4-[(2S)-3,3,3-trifluoro-2-hydroxypropyl]-2,4-dihydro-3H-1,2,4-triazol-3-one]
IC50 [1]: 1100 nM
IC50 [2]: 15.5 nM
ratio IC50 hV2/hV1a [2]: 71.3

CC1(C)CCCN1C(=O)c1ccccc1-n1cnc(Cn2nc(-c3ccc(Cl)cc3)n(C[C@H](O)C(F)(F)F)c2=O)n1 [Example 336, 5-(4-Chlorophenyl)-2-[(1-{2-[(2,2-dimethylpyrrolidin-1-yl)carbonyl]phenyl}-1H-1,2,4-triazol-3-yl)methyl]-4-[(2S)-3,3,3-trifluoro-2-hydroxypropyl]-2,4-dihydro-3H-1,2,4-triazol-3-one]
IC50 [1]: 1270 nM
IC50 [2]: 2.8 nM
ratio IC50 hV2/hV1a [2]: 453.6

O=C(c1ccccc1-n1cnc(Cn2nc(-c3ccc(Cl)cc3)n(C[C@H](O)C(F)(F)F)c2=O)n1)N1CCCCC1 [Example 338, 5-(4-Chlorophenyl)-2-({1-[2-(piperidin-1-ylcarbonyl)phenyl]-1H-1,2,4-triazol-3-yl}methyl)-4-[(2S)-3,3,3-trifluoro-2-hydroxypropyl]-2,4-dihydro-3H-1,2,4-triazol-3-one]
IC50 [1]: 960 nM
IC50 [2]: 1.6 nM
ratio IC50 hV2/hV1a [2]: 600.0

COC[C@@H]1CCCN1C(=O)c1ccccc1-n1cnc(Cn2nc(-c3ccc(Cl)cc3)n(C[C@H](O)C(F)(F)F)c2=O)n1 [Example 339, 5-(4-Chlorophenyl)-2-{[1-(2-{[(2S)-2-(methoxymethyl)pyrrolidin-1-yl]carbonyl}phenyl)-1H-1,2,4-triazol-3-yl]methyl}-4-[(2S)-3,3,3-trifluoro-2-hydroxypropyl]-2,4-dihydro-3H-1,2,4-triazol-3-one]
IC50 [1]: 3650 nM
IC50 [2]: 2.75 nM
ratio IC50 hV2/hV1a [2]: 1327.3

O=C(NC1CC1)c1ccccc1-n1cnc(Cn2nc(-c3ccc(Cl)cc3)n(C[C@H](O)C(F)(F)F)c2=O)n1 [Example 340, 2-[3-({3-(4-Chlorophenyl)-5-oxo-4-[(2S)-3,3,3-trifluoro-2-hydroxypropyl]-4,5-dihydro-1H-1,2,4-triazol-1-yl}methyl)-1H-1,2,4-triazol-1-yl]-N-cyclopropylbenzamide]
IC50 [1]: 390 nM
IC50 [2]: 8.5 nM
ratio IC50 hV2/hV1a [2]: 45.9

CC(C)CNC(=O)c1ccccc1-n1cnc(Cn2nc(-c3ccc(Cl)cc3)n(C[C@H](O)C(F)(F)F)c2=O)n1 [Example 341, 2-[3-({3-(4-Chlorophenyl)-5-oxo-4-[(2S)-3,3,3-trifluoro-2-hydroxypropyl]-4,5-dihydro-1H-1,2,4-triazol-1-yl}methyl)-1H-1,2,4-triazol-1-yl]-N-(2-methylpropyl)benzamide]
IC50 [1]: 205 nM
IC50 [2]: 1.55 nM
ratio IC50 hV2/hV1a [2]: 132.3

O=C(NC1CCCCCC1)c1ccccc1-n1cnc(Cn2nc(-c3ccc(Cl)cc3)n(C[C@H](O)C(F)(F)F)c2=O)n1 [Example 342, 2-[3-({3-(4-Chlorophenyl)-5-oxo-4-[(2S)-3,3,3-trifluoro-2-hydroxypropyl]-4,5-dihydro-1H-1,2,4-triazol-1-yl}methyl)-1H-1,2,4-triazol-1-yl]-N-cycloheptylbenzamide]
IC50 [1]: 365 nM
IC50 [2]: 6.15 nM
ratio IC50 hV2/hV1a [2]: 59.3

O=C(NC1CCCC1)c1ccccc1-n1cnc(Cn2nc(-c3ccc(Cl)cc3)n(C[C@H](O)C(F)(F)F)c2=O)n1 [Example 343, 2-[3-({3-(4-Chlorophenyl)-5-oxo-4-[(2S)-3,3,3-trifluoro-2-hydroxypropyl]-4,5-dihydro-1H-1,2,4-triazol-1-yl}methyl)-1H-1,2,4-triazol-1-yl]-N-cyclopentylbenzamide]
IC50 [1]: 103 nM
IC50 [2]: 0.87 nM
ratio IC50 hV2/hV1a [2]: 118.4

CC(C)(C)NC(=O)c1ccccc1-n1cnc(Cn2nc(-c3ccc(Cl)cc3)n(C[C@H](O)C(F)(F)F)c2=O)n1 [Example 344, N-Tert-butyl-2-[3-({3-(4-chlorophenyl)-5-oxo-4-[(2S)-3,3,3-trifluoro-2-hydroxypropyl]-4,5-dihydro-1H-1,2,4-triazol-1-yl}methyl)-1H-1,2,4-triazol-1-yl]benzamide]
IC50 [1]: 4.7 nM
IC50 [2]: 0.93 nM
ratio IC50 hV2/hV1a [2]: 5.0
